Values quoted from earlier work in patent publication US20070161542A1, “Ptb1b photoprobes” (priority 2003, published 2007).
Non-standard residues stand in square brackets, D forms with d. Residues, ends and D or L forms follow the SMILES beside them. *: point of attachment. F2Pmp = N[C@@H](Cc1ccc(C(F)(F)P(=O)(O)O)cc1)C(=O)O; Bz = O=C(c1ccccc1)*

Test system: PTP1B and TCPTP1B
Settings: reference (23); cited from earlier work

## NC(=O)[C@H](Cc1ccc(C(F)(F)P(=O)(O)O)cc1)NC(=O)[C@H](Cc1ccc(C(F)(F)P(=O)(O)O)cc1)NC(=O)[C@H](CCC(=O)O)NC(=O)c1ccccc1 [BzN-EJJ-AMIDE, N-benzoyl-L-glutamyl-[4-phosphono(difluoromethyl)]-L-phenylalanyl-[4-phosphono(difluoromethyl)]-L-phenylanalininamide] (Bz-Glu-[F2Pmp]-[F2Pmp]-NH2)
  inhibitor character: selective, potent inhibitor
